The subject of series [1] is MDCK1 (Madin–Darby canine kidney) cells. Put plainly: MTT antiproliferative assay, non-tumor MDCK1 cells. The series is classed as cell-based. As to conditions: Canis lupus familiaris, MDCK1, 72 h, mean ± SD of three independent experiments, normal cells. In outline:
(§1)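 Cells are seeded and treated the next day with test agents across five 10-fold concentrations up to 10^−4 M, with a solvent control matched to working concentrations. After 72 h, dehydrogenase activity is measured by MTT reduction, and GI50 is derived from concentration–percent inhibition curves.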
For orientation: Tetrazolium assays rely on reduction of a dye to a coloured formazan, in cell work by metabolically active cells.

Series [2] has as its system HeLa (cervical adenocarcinoma) cells. Put plainly: MTT antiproliferative assay, HeLa. The series is classed as cell-based. As to conditions: Homo sapiens, 72 h, mean ± SD of three independent experiments. In a few lines: as §1
Series [3] deals with human fibroblasts (BJ). Put plainly: MTT antiproliferative assay, normal BJ fibroblasts. The series is classed as cell-based. As to conditions: Homo sapiens, Fibroblast, 72 h, MTT, mean ± SD of three independent experiments; normal cells. In a few lines: as §1
For series [4], the system named is CaCo-2 (colon adenocarcinoma) cells. Description: MTT antiproliferative assay, CaCo-2. As to conditions: Homo sapiens, Caco-2; 72 h, MTT, mean ± SD of three independent experiments. The series is classed as cell-based, human. In outline: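 CaCo-2 cells, plated at 2 × 10^4 cells/mL in DMEM with 10 % FBS at 37 °C/5% CO2, were treated 24 h later with five 10-fold dilutions (10^−7 to 10^−4 M) for 72 h. Viability was measured by MTT (4 h, formazan dissolved in DMSO, OD 595 nm) against background and untreated controls. GI50 came from log-concentration versus percent-inhibition fits.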

Series [5] concerns HuT78 (T-cell lymphoma) cells. Description: MTT antiproliferative assay, HuT78. The series is classed as cell-based, human. As to conditions: for IC50: Homo sapiens, HuT78, 72 h, 72 h, MTT, mean ± SD of three independent experiments; for SI (BJ) HuT78: SI = IC50 BJ / IC50 HuT78; for SI (MDCK) HuT78: SI = IC50 MDCK1 / IC50 HuT78. In a few lines:
as §1

A value given as a limit tells only on which side of the number the result lay.

By IC50 is commonly meant the midpoint of a concentration-inhibition curve. A lower IC50 goes with higher potency. By melting point is commonly meant the temperature, or range, at which the solid turns liquid.

On to `Cl.O=C(COc1ccc(-c2nc3ccc(C4=NCCN4)cc3s2)cc1F)c1ccccc1` [34b, 2-(3-Fluoro-4-(2-oxo-2-phenylethoxy)phenyl)-6-(4,5-dihydro-1H-imidazol-2-yl)benzothiazole hydrochloride], for which the melting point is more than 240 °C. This molecule also yielded an IC50 in series [1] of 2.2 ± 0.3 µM. The molecule also had an IC50 in series [2] of 4.5 ± 4.3 µM. Moreover, the half-inhibitory concentration (IC50) in series [3] came out at 11.2 ± 6 µM. In series [4], this molecule showed a 50% inhibitory concentration (IC50) of 7 ± 5.4 µM. The molecule also yielded an IC50 in series [5] of 2.1 ± 0.2 µM.

`Fc1cc(-c2nc3ccc(Cl)cc3s2)ccc1OCc1cn(Cc2ccccc2)nn1` [24b, 6-Chloro-2-(3-fluoro-4-((1-benzyl-1H-1,2,3-triazol-4-yl)methoxy)phenyl)benzothiazole] displayed a melting point of 181 to 186 °C. In series [1], this molecule registered an IC50 of 8.8 ± 8.3 µM. The molecule further registered an IC50 in series [2] of more than 100 µM. The molecule further registered a concentration for half-maximal inhibition (IC50) in series [3] of more than 100 µM. This molecule also yielded an IC50 in series [4] of more than 100 µM. For the same molecule, the IC50 in series [5] was more than 100 µM.

`COc1cc(-c2nc3ccc(C4=NCCN4)cc3s2)ccc1OCc1ccccn1.Cl` [35c, 2-(3-Methoxy-4-(pyridin-2-ylmethoxy)phenyl)-6-(4,5-dihydro-1H-imidazol-2-yl)benzothiazole hydrochloride]: the melting point fell in the range of 219 to 223 °C. The molecule further had an IC50 in series [1] of 7.5 ± 3.5 µM. For the same molecule, the half-inhibitory concentration (IC50) in series [2] turned out to be 21.8 ± 5.5 µM. In addition, the IC50 in series [3] amounted to 6.7 ± 4.9 µM. The same molecule gave an IC50 in series [4] of 18.2 ± 3.3 µM. The same molecule came in with an IC50 in series [5] of 6.2 ± 2.7 µM.

In turn, `COc1cc(-c2nc3ccc(Cl)cc3s2)ccc1OCc1cn(Cc2ccccc2)nn1` [24c, 6-Chloro-2-(3-methoxy-4-((1-benzyl-1H-1,2,3-triazol-4-yl)methoxy)phenyl)benzothiazole] came in with a melting point of 190 to 193 °C. Besides, half-maximal inhibition in series [1] (IC50) required 41.1 ± 17.2 µM. Half-maximal inhibition in series [2] (IC50) required 82.8 ± 32.3 µM. The same molecule registered an IC50 in series [3] of more than 100 µM. The same molecule came in with a 50% inhibitory concentration (IC50) in series [4] of more than 100 µM. Further, in series [5], the IC50 turned out to be 49.6 ± 38 µM and the “SI (BJ) HuT78” value is on record as 2.0.

The molecule `Fc1ccc2nc(-c3ccc(OCc4c[nH]nn4)c(F)c3)sc2c1` [22b, 6-Fluoro-2-(3-fluoro-4-((1H-1,2,3-triazol-4-yl)methoxy)phenyl)benzothiazole] gave a melting point of 177 to 180 °C. In addition, half-maximal inhibition in series [1] (IC50) required 1 µM. Besides, 50.6 ± 19.3 µM corresponded to half-maximal inhibition in series [2] (IC50). Moreover, half-maximal inhibition in series [3] (IC50) was put at 86.4 ± 20.9 µM. The 50% inhibitory concentration (IC50) in series [4] was more than 100 µM. For the same molecule, in series [5], the IC50 stood at 9.1 ± 2.8 µM and the “SI (BJ) HuT78” value came to 9.49.

`Fc1cc(-c2nc3ccccc3s2)ccc1OCc1cn(Cc2ccccc2)nn1` [26b, 2-(3-Fluoro-4-((1-benzyl-1H-1,2,3-triazol-4-yl)methoxy)phenyl)benzothiazole] yielded a melting point of 198 to 201 °C. Besides, in series [1], the IC50 is 64.8 ± 38.5 µM. The molecule further gave an IC50 in series [2] of more than 100 µM. In addition, the IC50 in series [3] was more than 100 µM. Further, in series [4], the IC50 is more than 100 µM. The molecule further yielded an IC50 in series [5] of more than 100 µM.

The molecule `O=C(COc1ccc(-c2nc3ccc(Cl)cc3s2)cc1F)c1ccccc1` [15b, 6-Chloro-2-(3-fluoro-4-(2-oxo-2-phenylethoxy)phenyl)benzothiazole] gave a melting point of 192 to 195 °C. In series [1], the IC50 was more than 100 µM. Besides, in series [2], the 50% inhibitory concentration (IC50) is more than 100 µM. Also, the IC50 in series [3] is more than 100 µM. Further, in series [4], the IC50 is more than 100 µM. In series [5], this molecule showed a half-inhibitory concentration (IC50) of more than 100 µM.

Molecule `Cl.c1ccc(Cn2cc(COc3ccc(-c4nc5ccc(C6=NCCN6)cc5s4)cc3)nn2)cc1` [37a, 2-(4-((1-Benzyl-1H-1,2,3-triazol-4-yl)methoxy)phenyl)-6-(4,5-dihydro-1H-imidazol-2-yl)benzothiazole hydrochloride] returned a melting point of 153 to 156 °C. Moreover, in series [1], the IC50 was 1.5 ± 0.3 µM. Also, the IC50 in series [2] was 3.6 ± 0.1 µM. The molecule also yielded an IC50 in series [3] of 4.3 ± 3.6 µM. In series [4], this molecule gave an IC50 of 3.7 ± 1.5 µM. In series [5], inhibition was half-maximal at 1.6 ± 0.8 µM (IC50).

Molecule `Fc1ccc2nc(-c3ccc(OCc4c[nH]nn4)cc3)sc2c1` [22a, 6-Fluoro-2-(4-((1H-1,2,3-triazol-4-yl)methoxy)phenyl)benzothiazole] came in with a melting point of 212 to 215 °C. Also, in series [1], it took 1.1 ± 0.2 µM to reach half-maximal inhibition (IC50). In series [2], this molecule showed an IC50 of 54.5 ± 29.4 µM. In series [3], this molecule had an IC50 of more than 100 µM. Moreover, the IC50 in series [4] was determined as 73.5 ± 4.5 µM. In series [5], 14.9 ± 10.8 µM corresponded to half-maximal inhibition (IC50) and the “SI (BJ) HuT78” value was 6.71.

Molecule `Fc1cc(-c2nc3ccccc3s2)ccc1OCc1c[nH]nn1` [23b, 2-(3-Fluoro-4-((1H-1,2,3-triazol-4-yl)methoxy)phenyl)benzothiazole] returned a melting point of 185 to 189 °C. Besides, in series [1], the IC50 was 27.4 ± 4.2 µM. The molecule also returned an IC50 in series [2] of 34.9 ± 14.8 µM. For the same molecule, the IC50 in series [3] stood at 40.5 ± 17.2 µM. In addition, 56 ± 14.6 µM corresponded to half-maximal inhibition in series [4] (IC50). In addition, in series [5], the IC50 came to 17.1 ± 7.7 µM, the “SI (BJ) HuT78” value was found to be 2.34 and the “SI (MDCK) HuT78” value was 1.6.

In the case of `Fc1cc(-c2nc3ccc(Cl)cc3s2)ccc1OCc1c[nH]nn1` [21b, 6-Chloro-2-(3-fluoro-4-((1H-1,2,3-triazol-4-yl)methoxy)phenyl)benzothiazole], the melting point fell in the range of 205 to 209 °C. Also, in series [1], the IC50 was 10.1 ± 4.5 µM. The molecule further displayed an IC50 in series [2] of more than 100 µM. This molecule displayed a half-inhibitory concentration (IC50) in series [3] of 84.1 ± 24.7 µM. In addition, the IC50 in series [4] was more than 100 µM. Moreover, in series [5], the IC50 was determined as 3.6 ± 3.1 µM, the “SI (BJ) HuT78” value amounted to 23.36 and the “SI (MDCK) HuT78” value was found to be 2.8.

As for `COc1cc(-c2nc3ccccc3s2)ccc1OCC(=O)c1ccccc1` [17c, 2-(3-Methoxy-4-(2-oxo-2-phenylethoxy)phenyl)benzothiazole], the melting point was 184 to 186 °C. The molecule further came in with a 50% inhibitory concentration (IC50) in series [1] of 78 ± 27.8 µM. Moreover, the IC50 in series [2] is more than 100 µM. The same molecule yielded a 50% inhibitory concentration (IC50) in series [3] of more than 100 µM. The same molecule registered an IC50 in series [4] of more than 100 µM. Besides, the IC50 in series [5] was more than 100 µM.

As for `c1ccc(Cn2cc(COc3ccc(-c4nc5ccccc5s4)cc3)nn2)cc1` [26a, 2-(4-((1-Benzyl-1H-1,2,3-triazol-4-yl)methoxy)phenyl)benzothiazole], the melting point is 210 to 214 °C. The IC50 in series [1] was 36.7 ± 18 µM. The IC50 in series [2] was more than 100 µM. Moreover, in series [3], the IC50 is more than 100 µM. Besides, the IC50 in series [4] was more than 100 µM. Moreover, the IC50 in series [5] was more than 100 µM.

`Clc1ccc2nc(-c3ccc(OCc4cn(Cc5ccccc5)nn4)cc3)sc2c1` [24a, 6-Chloro-2-(4-((1-benzyl-1H-1,2,3-triazol-4-yl)methoxy)phenyl)benzothiazole] came in with a melting point of 201 to 205 °C. In series [1], this molecule displayed an IC50 of 11.4 ± 14.5 µM. The molecule further came in with an IC50 in series [2] of more than 100 µM. The IC50 in series [3] is more than 100 µM. Also, in series [4], the 50% inhibitory concentration (IC50) is more than 100 µM. In series [5], this molecule returned a half-inhibitory concentration (IC50) of more than 100 µM.

Molecule `O=C(COc1ccc(-c2nc3ccc(Cl)cc3s2)cc1)c1ccccc1` [15a, 6-Chloro-2-(4-(2-oxo-2-phenylethoxy)phenyl)benzothiazole] came in with a melting point of 192 to 195 °C. In addition, the IC50 in series [1] was more than 100 µM. In series [2], this molecule displayed an IC50 of more than 100 µM. The molecule further returned an IC50 in series [3] of more than 100 µM. The same molecule gave an IC50 in series [4] of more than 100 µM. This molecule also registered an IC50 in series [5] of more than 100 µM.
